What was measured:
[1] = system: Wnt/β-catenin signaling; test: Axin2 expression by qPCR in hCMEC/D3 cerebral microvascular endothelial cells; format: cell-based, human; conditions: serum free medium, 24 h
Experimental: The expression level of Axin2, a specific target of Wnt/β-catenin signaling, was measured by qPCR. The results represented in the histograms are shown as the means±SE and are the average of 3 independent experiments. One-way ANOVA with post hoc Tukey-Kramer honest significant difference test. **, p<0.01.
Studies in past ten years have established that the Wnt/β-catenin pathway is a key pathway required not only for BBB formation but also for BBB integrity and function. Moreover, BBB breakdown following middle cerebral artery occlusion can be potently rescued in mice in which Wnt/β-catenin is specifically activated in brain endothelial cells. On the other hand, dysregulation of Wnt/β-catenin may limit remyelination of white matter lesions (WMLs) and render the BBB leaky.

[2] = system: Wnt/β-catenin signaling; test: Total cellular β-catenin level by Western blotting in neuronal N2a cells; format: cell-based; conditions: 24 h, Western blotting normalized to actin
Experimental: (A) Compound 1039 activates Wnt/β-catenin signaling in HEK293 cells. HEK293 cells were transfected with Super8XTOPFlash and 8-galactosidase vectors along with Wnt3A or control vector. After 24 h incubation, cells were treated with 1039 at the indicated concentrations for 24 h. The luciferase activity was then measured and normalized to the activity of the 8-galactosidase. All the values are the average of triplicate determinations with the SD values indicated by error bars. This experiment is a representative of 3 such experiments performed with similar data. (B, C) N2a cells were treated with Compound 1039 at the indicated concentrations for 24 h. (B) The levels of total cellular β-catenin were examined by Western blotting. (C) The intensity of the β-catenin bands was quantified and normalized to the corresponding signal for actin. The results represented in the histograms are shown as the mean±SD and are the average of 3 independent experiments.
Wnt/β-catenin signaling plays a critical role in neuronal survival, neurogenesis, synaptogenesis, neuronal plasticity and synaptic plasticity.

SMILES	activation of Wnt/β-catenin signaling (Axin2 expression, qPCR) [1]	β-catenin level [2]
Nc1ccccc1NC(=O)c1ccc(C(=O)NCC2CCN2C2CCCC2)cn1 (centres unmarked) [Compound 1015]	able to activate Wnt/β-catenin signaling	–
Nc1ccccc1NC(=O)c1ccc(C(=O)NCC2CCCN2CCc2ccccc2)cn1 (centres unmarked) [Compound 1039]	–	enhances β-catenin level in a dose dependent manner
